Data reported in ChEMBL document CHEMBL5325488, “Discovery of SMD-3040 as a Potent and Selective SMARCA2 PROTAC Degrader with Strong in vivo Antitumor Activity” (J Med Chem, 2023).

Columns and labels:
[1] = molecular target: T1, von Hippel-Lindau disease tumor suppressor/SWI/SNF-related matrix-associated actin-dependent regulator of chromatin subfamily A member 4 (Homo sapiens, UniProt P51532+P40337); experiment: PROTAC activity at VHL/wild-type SMARCA4 in human SK-MEL-28 cells assessed as induction of SMARCA4 degradation at 0.001 to 1000 nM incubated for 24 hrs by Western blotting analysis relative to control; type: cell-based; conditions: dose 0.001-1000 nM
[2] = Drug concentration in SCID mouse plasma xenografted with human MV4-11 cells at 50 mg/kg, iv measured after 48 hrs by LC-MS/MS method; type: ADME, organism-based
[3] = molecular target: T2, von Hippel-Lindau disease tumor suppressor/SWI/SNF-related matrix-associated actin-dependent regulator of chromatin subfamily A member 2 (Homo sapiens, UniProt P51531+P40337); experiment: In vivo PROTAC activity at VHL/SMARCA2 in SCID mouse xenografted with human NCI-H838 cells assessed as reduction of SMARCA2 level in tumor at 50 mg/kg, iv administered as single dose measured after 3 hrs by Western blotting analysis; type: functional, organism-based; set-up: scale not given: the % may be the effect or the level left
[4] = molecular target: T1, von Hippel-Lindau disease tumor suppressor/SWI/SNF-related matrix-associated actin-dependent regulator of chromatin subfamily A member 4; experiment: PROTAC activity at VHL/C-terminal HiBiT fused SMARCA4 in human HeLa cells assessed as induction of SMARCA4 degradation incubated for 6 hrs by Nano-Glo HiBiT analysis; type: cell-based
Target sequence in this assay (P51532 whole entry): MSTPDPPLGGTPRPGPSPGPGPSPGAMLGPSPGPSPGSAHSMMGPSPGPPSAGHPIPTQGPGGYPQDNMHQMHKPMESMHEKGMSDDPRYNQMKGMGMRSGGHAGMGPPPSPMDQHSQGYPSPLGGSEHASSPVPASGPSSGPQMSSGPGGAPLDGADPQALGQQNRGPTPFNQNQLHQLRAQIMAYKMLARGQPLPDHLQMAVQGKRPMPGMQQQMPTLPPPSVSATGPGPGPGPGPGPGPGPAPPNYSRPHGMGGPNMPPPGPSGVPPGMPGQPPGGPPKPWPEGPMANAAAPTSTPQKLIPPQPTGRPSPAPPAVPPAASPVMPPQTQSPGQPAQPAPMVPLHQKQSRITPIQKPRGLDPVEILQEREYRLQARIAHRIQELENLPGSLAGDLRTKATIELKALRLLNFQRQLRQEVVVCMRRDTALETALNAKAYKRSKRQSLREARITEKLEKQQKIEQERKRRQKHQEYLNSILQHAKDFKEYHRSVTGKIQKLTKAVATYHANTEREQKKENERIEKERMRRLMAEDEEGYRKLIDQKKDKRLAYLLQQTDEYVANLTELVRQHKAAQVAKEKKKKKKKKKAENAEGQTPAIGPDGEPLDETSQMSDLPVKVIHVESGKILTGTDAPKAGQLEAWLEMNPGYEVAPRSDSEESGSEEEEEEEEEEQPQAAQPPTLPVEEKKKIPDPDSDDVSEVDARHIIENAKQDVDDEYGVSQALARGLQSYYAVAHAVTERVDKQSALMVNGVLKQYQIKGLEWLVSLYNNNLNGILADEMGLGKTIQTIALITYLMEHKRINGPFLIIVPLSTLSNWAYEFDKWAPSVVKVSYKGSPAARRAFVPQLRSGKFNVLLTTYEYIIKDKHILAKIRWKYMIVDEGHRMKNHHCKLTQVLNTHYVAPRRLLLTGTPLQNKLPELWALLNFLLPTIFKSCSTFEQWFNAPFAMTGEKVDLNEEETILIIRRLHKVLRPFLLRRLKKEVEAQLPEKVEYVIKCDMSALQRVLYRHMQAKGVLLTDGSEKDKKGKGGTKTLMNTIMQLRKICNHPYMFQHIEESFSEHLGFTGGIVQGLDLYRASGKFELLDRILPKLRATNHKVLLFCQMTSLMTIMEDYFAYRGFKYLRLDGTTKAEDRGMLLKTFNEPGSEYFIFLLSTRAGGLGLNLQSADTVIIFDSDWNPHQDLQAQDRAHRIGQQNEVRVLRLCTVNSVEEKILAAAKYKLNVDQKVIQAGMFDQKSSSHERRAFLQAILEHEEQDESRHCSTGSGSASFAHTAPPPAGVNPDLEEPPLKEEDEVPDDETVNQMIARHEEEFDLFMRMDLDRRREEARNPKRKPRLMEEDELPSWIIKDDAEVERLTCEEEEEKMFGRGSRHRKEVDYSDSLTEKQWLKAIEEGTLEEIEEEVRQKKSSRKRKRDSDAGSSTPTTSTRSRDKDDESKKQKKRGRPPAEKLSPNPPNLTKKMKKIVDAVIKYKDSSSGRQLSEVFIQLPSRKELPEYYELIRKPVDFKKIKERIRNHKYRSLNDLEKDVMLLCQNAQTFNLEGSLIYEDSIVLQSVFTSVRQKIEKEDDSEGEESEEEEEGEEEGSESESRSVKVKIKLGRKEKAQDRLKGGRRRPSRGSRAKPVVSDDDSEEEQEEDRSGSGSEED
Target sequence in this assay (P40337 whole entry): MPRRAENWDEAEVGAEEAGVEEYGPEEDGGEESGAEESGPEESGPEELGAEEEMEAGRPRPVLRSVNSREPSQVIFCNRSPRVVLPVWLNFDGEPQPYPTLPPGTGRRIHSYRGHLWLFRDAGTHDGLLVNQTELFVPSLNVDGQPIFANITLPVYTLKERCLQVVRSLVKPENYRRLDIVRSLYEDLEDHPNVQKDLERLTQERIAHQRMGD

[5] = system: NCI-H838; experiment: Antiproliferative activity against SMARCA4-deficient human NCI-H838 cells assessed as cell growth inhibition measured after 7 days by WST-8 assay; type: functional; conditions: NCI-H838, 168 h, time 7 day
[6] = system: NCI-H1693; experiment: Antiproliferative activity against SMARCA4-deficient human NCI-H1693 cells assessed as cell growth inhibition by measuring maximal efficacy measured after 7 days by WST-8 assay relative to control; type: functional; conditions: time 7 day
[7] = molecular target: T1, von Hippel-Lindau disease tumor suppressor/SWI/SNF-related matrix-associated actin-dependent regulator of chromatin subfamily A member 4; experiment: In vivo PROTAC activity at VHL/SMARCA4 in SCID mouse xenografted with human MV4-11 cells assessed as remaining activity in tumor at 50 mg/kg, iv administered as single dose measured after 72 hrs by Western blotting analysis (reference value: 100 +/- 15 % ); type: ADME, organism-based
Target sequence in this assay (P51532 whole entry): as the sequence (P51532 whole entry) above
Target sequence in this assay (P40337 whole entry): as the sequence (P40337 whole entry) above

[8] = molecular target: T2, von Hippel-Lindau disease tumor suppressor/SWI/SNF-related matrix-associated actin-dependent regulator of chromatin subfamily A member 2; experiment: In vivo PROTAC activity at VHL/SMARCA2 in SCID mouse xenografted with human MV4-11 cells assessed as reduction of SMARCA2 level in tumor at 50 mg/kg, iv administered as single dose measured after 2 hrs by Western blotting analysis; type: ADME, organism-based; set-up: scale not given: the % may be the effect or the level left
Target sequence in this assay (P51531 whole entry, the tested form may be a part): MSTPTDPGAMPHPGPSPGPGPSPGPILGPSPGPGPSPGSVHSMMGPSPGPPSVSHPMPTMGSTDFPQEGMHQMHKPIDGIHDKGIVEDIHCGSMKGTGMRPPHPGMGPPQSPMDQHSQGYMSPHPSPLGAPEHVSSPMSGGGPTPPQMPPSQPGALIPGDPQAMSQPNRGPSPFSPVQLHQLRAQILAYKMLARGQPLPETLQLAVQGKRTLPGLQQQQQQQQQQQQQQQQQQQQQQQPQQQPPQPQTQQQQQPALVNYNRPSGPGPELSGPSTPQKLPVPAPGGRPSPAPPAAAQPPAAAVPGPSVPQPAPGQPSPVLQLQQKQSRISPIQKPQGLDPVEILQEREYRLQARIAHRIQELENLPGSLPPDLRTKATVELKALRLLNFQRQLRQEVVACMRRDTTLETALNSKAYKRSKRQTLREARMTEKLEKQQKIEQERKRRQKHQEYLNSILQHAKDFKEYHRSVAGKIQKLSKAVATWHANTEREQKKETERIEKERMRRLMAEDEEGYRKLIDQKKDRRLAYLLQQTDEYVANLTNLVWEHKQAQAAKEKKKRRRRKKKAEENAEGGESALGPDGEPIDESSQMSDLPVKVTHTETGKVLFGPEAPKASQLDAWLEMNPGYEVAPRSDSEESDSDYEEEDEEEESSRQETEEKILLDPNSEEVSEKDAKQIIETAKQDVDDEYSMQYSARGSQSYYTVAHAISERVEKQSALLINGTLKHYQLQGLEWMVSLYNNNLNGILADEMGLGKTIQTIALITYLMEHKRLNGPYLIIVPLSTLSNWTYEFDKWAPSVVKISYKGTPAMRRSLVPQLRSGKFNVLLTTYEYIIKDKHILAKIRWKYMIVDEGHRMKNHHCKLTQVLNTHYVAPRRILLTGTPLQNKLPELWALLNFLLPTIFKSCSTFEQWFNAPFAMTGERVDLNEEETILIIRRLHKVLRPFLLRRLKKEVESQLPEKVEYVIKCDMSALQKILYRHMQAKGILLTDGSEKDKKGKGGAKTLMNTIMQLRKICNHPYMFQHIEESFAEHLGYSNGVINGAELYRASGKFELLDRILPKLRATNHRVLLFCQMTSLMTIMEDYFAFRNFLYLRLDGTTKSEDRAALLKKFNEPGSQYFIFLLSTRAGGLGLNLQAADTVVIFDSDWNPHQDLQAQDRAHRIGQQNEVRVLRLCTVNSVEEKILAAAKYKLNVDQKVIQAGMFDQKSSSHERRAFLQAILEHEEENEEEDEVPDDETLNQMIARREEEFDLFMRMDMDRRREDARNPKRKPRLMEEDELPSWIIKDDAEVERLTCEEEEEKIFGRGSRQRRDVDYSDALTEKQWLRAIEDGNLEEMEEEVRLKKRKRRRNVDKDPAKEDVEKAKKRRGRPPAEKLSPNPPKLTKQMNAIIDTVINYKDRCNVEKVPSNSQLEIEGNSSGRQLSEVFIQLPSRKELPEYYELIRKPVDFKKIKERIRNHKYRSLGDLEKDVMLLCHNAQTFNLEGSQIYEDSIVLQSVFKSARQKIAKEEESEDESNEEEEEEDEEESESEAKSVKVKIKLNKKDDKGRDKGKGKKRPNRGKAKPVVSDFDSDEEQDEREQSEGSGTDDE
Target sequence in this assay (P40337 whole entry, the tested form may be a part): as the sequence (P40337 whole entry) above

[9] = system: NCI-H1975; experiment: Antiproliferative activity against human NCI-H1975 cells expressing wild-type SMARCA2 assessed as cell growth inhibition measured after 7 days by WST-8 assay; type: functional; conditions: NCI-H1975, 168 h, time 7 day
[10] = molecular target: T2, von Hippel-Lindau disease tumor suppressor/SWI/SNF-related matrix-associated actin-dependent regulator of chromatin subfamily A member 2; experiment: In vivo PROTAC activity at VHL/SMARCA2 in SCID mouse xenografted with human NCI-H838 cells assessed as remaining activity in tumor at 50 mg/kg, iv administered as single dose measured after 24 hrs by Western blotting analysis (reference value: 100 +/- 7% ); type: functional, organism-based
[11] = Drug concentration in SCID mouse plasma xenografted with human MV4-11 cells at 50 mg/kg, iv measured after 96 hrs by LC-MS/MS method; type: ADME, organism-based
[12] = molecular target: T1, von Hippel-Lindau disease tumor suppressor/SWI/SNF-related matrix-associated actin-dependent regulator of chromatin subfamily A member 4; experiment: In vivo PROTAC activity at VHL/SMARCA4 in SCID mouse xenografted with human MV4-11 cells assessed as remaining activity in tumor at 50 mg/kg, iv administered as single dose measured after 6 hrs by Western blotting analysis (reference value: 100 +/- 15 % ); type: ADME, organism-based
Target sequence in this assay (P51532 whole entry): as the sequence (P51532 whole entry) above
Target sequence in this assay (P40337 whole entry): as the sequence (P40337 whole entry) above

[13] = system: NCI-H1693; experiment: Antiproliferative activity against SMARCA4-deficient human NCI-H1693 cells assessed as cell growth inhibition measured after 7 days by WST-8 assay; type: functional; conditions: NCI-H1693, 168 h, time 7 day
[14] = system: SK-MEL-5; experiment: Antitumor activity against SMARCA4-deficient human SK-MEL-5 cells xenografted in SCID mouse assessed as tumor growth inhibition at 25 mg/kg, iv administered twice a week measured after 32 days relative to control; type: functional; conditions: SK-MEL-5, 768 h, time 32 day, read-out: TGI
[15] = molecular target: T2, von Hippel-Lindau disease tumor suppressor/SWI/SNF-related matrix-associated actin-dependent regulator of chromatin subfamily A member 2; experiment: In vivo PROTAC activity at VHL/SMARCA2 in SCID mouse xenografted with human MV4-11 cells assessed as reduction of SMARCA2 level in tumor at 50 mg/kg, iv administered as single dose measured after 6 hrs by Western blotting analysis; type: ADME, organism-based; set-up: scale not given: the % may be the effect or the level left
Target sequence in this assay (P51531 whole entry, the tested form may be a part): as the sequence (P51531 whole entry, the tested form may be a part) above
Target sequence in this assay (P40337 whole entry, the tested form may be a part): as the sequence (P40337 whole entry) above

[16] = molecular target: T2, von Hippel-Lindau disease tumor suppressor/SWI/SNF-related matrix-associated actin-dependent regulator of chromatin subfamily A member 2; experiment: In vivo PROTAC activity at VHL/SMARCA2 in SCID mouse xenografted with human NCI-H838 cells assessed as remaining activity in tumor at 50 mg/kg, iv administered as single dose measured after 48 hrs by Western blotting analysis (reference value: 100 +/- 7% ); type: functional, organism-based
[17] = molecular target: T1, von Hippel-Lindau disease tumor suppressor/SWI/SNF-related matrix-associated actin-dependent regulator of chromatin subfamily A member 4; experiment: In vivo PROTAC activity at VHL/SMARCA4 in SCID mouse xenografted with human MV4-11 cells assessed as remaining activity in tumor at 50 mg/kg, iv administered as single dose measured after 2 hrs by Western blotting analysis (reference value: 100 +/- 15 % ); type: ADME, organism-based
Target sequence in this assay (P51532 whole entry): as the sequence (P51532 whole entry) above
Target sequence in this assay (P40337 whole entry): as the sequence (P40337 whole entry) above

[18] = molecular target: T2, von Hippel-Lindau disease tumor suppressor/SWI/SNF-related matrix-associated actin-dependent regulator of chromatin subfamily A member 2; experiment: In vivo PROTAC activity at VHL/SMARCA2 in SCID mouse xenografted with human MV4-11 cells assessed as remaining activity in tumor at 50 mg/kg, iv administered as single dose measured after 72 hrs by Western blotting analysis (reference value: 100 +/- 15 % ); type: ADME, organism-based
Target sequence in this assay (P51531 whole entry, the tested form may be a part): as the sequence (P51531 whole entry, the tested form may be a part) above
Target sequence in this assay (P40337 whole entry, the tested form may be a part): as the sequence (P40337 whole entry) above

[19] = molecular target: T2, von Hippel-Lindau disease tumor suppressor/SWI/SNF-related matrix-associated actin-dependent regulator of chromatin subfamily A member 2; experiment: In vivo PROTAC activity at VHL/SMARCA2 in SCID mouse xenografted with human NCI-H838 cells assessed as remaining activity in tumor at 50 mg/kg, iv administered as single dose measured after 96 hrs by Western blotting analysis (reference value: 100 +/- 7% ); type: functional, organism-based
[20] = molecular target: T1, von Hippel-Lindau disease tumor suppressor/SWI/SNF-related matrix-associated actin-dependent regulator of chromatin subfamily A member 4; experiment: PROTAC activity at VHL/C-terminal HiBiT fused SMARCA4 in human HeLa cells assessed as induction of SMARCA4 degradation incubated for 1 to 48 hrs by Nano-Glo HiBiT analysis; type: cell-based; conditions: dose 0.001-10 µM, time 1-48 hrs
[21] = molecular target: T2, von Hippel-Lindau disease tumor suppressor/SWI/SNF-related matrix-associated actin-dependent regulator of chromatin subfamily A member 2; experiment: In vivo PROTAC activity at VHL/SMARCA2 in SCID mouse xenografted with human NCI-H838 cells assessed as reduction of SMARCA2 level in tumor at 50 mg/kg, iv administered as single dose measured after 96 hrs by Western blotting analysis; type: functional, organism-based; set-up: scale not given: the % may be the effect or the level left
[22] = molecular target: T2, von Hippel-Lindau disease tumor suppressor/SWI/SNF-related matrix-associated actin-dependent regulator of chromatin subfamily A member 2; experiment: PROTAC activity at VHL/C-terminal HiBiT fused SMARCA2 in human HeLa cells assessed as induction of SMARCA2 degradation incubated for 1 hr by Nano-Glo HiBiT analysis; type: cell-based
Target sequence in this assay (P51531 whole entry, the tested form may be a part): as the sequence (P51531 whole entry, the tested form may be a part) above
Target sequence in this assay (P40337 whole entry, the tested form may be a part): as the sequence (P40337 whole entry) above

[23] = molecular target: T1, von Hippel-Lindau disease tumor suppressor/SWI/SNF-related matrix-associated actin-dependent regulator of chromatin subfamily A member 4; experiment: PROTAC activity at VHL/C-terminal HiBiT fused SMARCA4 in human HeLa cells assessed as induction of SMARCA4 degradation by measuring maximal efficacy at 0.001 to 10 uM incubated for 48 hrs by Nano-Glo HiBiT analysis relative to control; type: cell-based; conditions: dose 0.001-10 µM
[24] = system: NCI-H1793; experiment: Antiproliferative activity against SMARCA4-deficient human NCI-H1793 cells assessed as cell growth inhibition measured after 7 days by WST-8 assay; type: functional; conditions: NCI-H1793, 168 h, time 7 day
[25] = molecular target: T2, von Hippel-Lindau disease tumor suppressor/SWI/SNF-related matrix-associated actin-dependent regulator of chromatin subfamily A member 2; experiment: PROTAC activity at VHL/C-terminal HiBiT fused SMARCA2 in human HeLa cells assessed as induction of SMARCA2 degradation incubated for 48 hrs by Nano-Glo HiBiT analysis; type: cell-based
Target sequence in this assay (P51531 whole entry, the tested form may be a part): as the sequence (P51531 whole entry, the tested form may be a part) above
Target sequence in this assay (P40337 whole entry, the tested form may be a part): as the sequence (P40337 whole entry) above

Cc1ncsc1-c1ccc([C@H](C)NC(=O)[C@@H]2C[C@@H](O)CN2C(=O)[C@@H](NC(=O)[C@H]2CC[C@H](CN3CC4(CCC(n5cc(-c6cc(-c7ccccc7O)nnc6N)cn5)CC4)C3)CC2)C(C)(C)C)cc1
Emax [1]: 24% | concentration at 48 h [2]: 60.5 ng/mL | Activity [3]: 70% | DC50 [4]: > 3300 nM | GI50 [5]: 119 nM | Imax [6]: 79% | Activity [7]: 91% | Activity [8]: 78% | GI50 [9]: > 10000 nM | Activity [10]: 9% | concentration at 96 h [11]: 19.6 ng/mL | Activity [12]: 83% | GI50 [13]: 15 nM | inhibition in vivo at 25 mg/kg [14]: 54% | Activity [15]: 70% | Activity [16]: 25% | Activity [17]: 93% | Activity [18]: 44% | Activity [19]: 33% | Activity [20]: Dose-Dependent Effect | Activity [21]: 67% | DC50 [22]: 250 nM | Emax [23]: 68% | GI50 [24]: 21 nM | DC50 [25]: 11 nM
